Measured values published in publication PMC9056855 (RSC Advances, 2020).

What was measured:
Type in all cases: biochemical
UGT1A9 [1] = target: T1, UGT1A9 (Homo sapiens, UniProt O60656); assay: probe substrate turnover, UHPLC
T1 sequence (O60656 26-530): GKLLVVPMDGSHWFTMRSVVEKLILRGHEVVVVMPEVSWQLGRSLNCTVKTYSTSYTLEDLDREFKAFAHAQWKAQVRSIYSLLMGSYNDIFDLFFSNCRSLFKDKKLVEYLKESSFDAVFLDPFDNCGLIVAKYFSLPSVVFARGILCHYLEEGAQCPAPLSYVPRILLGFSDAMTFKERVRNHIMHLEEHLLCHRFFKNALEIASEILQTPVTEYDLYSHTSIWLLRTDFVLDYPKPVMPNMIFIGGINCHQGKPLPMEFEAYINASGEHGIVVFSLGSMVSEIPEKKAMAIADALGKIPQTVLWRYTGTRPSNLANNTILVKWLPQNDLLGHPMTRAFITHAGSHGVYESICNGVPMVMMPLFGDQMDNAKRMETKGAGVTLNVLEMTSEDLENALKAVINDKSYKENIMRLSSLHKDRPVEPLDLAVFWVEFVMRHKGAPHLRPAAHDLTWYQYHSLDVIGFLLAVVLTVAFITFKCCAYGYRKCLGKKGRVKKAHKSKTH

CYP1A2 = target: T2, CYP1A2 (Homo sapiens, UniProt P05177); assay: probe substrate turnover, UHPLC
T2 sequence (P05177 2-516): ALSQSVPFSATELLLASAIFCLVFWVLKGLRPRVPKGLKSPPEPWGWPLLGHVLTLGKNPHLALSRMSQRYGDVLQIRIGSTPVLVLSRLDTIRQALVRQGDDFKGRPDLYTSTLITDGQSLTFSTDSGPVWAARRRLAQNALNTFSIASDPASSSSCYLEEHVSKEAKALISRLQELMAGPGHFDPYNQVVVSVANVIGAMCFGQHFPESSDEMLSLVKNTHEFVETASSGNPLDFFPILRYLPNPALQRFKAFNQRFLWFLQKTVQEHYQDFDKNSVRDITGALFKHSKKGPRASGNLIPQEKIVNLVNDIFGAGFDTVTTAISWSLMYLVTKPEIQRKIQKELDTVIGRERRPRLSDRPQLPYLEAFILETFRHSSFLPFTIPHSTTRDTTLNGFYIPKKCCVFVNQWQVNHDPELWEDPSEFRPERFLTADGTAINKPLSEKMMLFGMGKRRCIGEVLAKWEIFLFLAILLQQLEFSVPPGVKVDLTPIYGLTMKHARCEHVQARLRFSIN

CYP2E1 = CYP2E1 (Homo sapiens, UniProt P05181); assay: probe substrate turnover, UHPLC
Sequence of CYP2E1 (P05181 whole entry): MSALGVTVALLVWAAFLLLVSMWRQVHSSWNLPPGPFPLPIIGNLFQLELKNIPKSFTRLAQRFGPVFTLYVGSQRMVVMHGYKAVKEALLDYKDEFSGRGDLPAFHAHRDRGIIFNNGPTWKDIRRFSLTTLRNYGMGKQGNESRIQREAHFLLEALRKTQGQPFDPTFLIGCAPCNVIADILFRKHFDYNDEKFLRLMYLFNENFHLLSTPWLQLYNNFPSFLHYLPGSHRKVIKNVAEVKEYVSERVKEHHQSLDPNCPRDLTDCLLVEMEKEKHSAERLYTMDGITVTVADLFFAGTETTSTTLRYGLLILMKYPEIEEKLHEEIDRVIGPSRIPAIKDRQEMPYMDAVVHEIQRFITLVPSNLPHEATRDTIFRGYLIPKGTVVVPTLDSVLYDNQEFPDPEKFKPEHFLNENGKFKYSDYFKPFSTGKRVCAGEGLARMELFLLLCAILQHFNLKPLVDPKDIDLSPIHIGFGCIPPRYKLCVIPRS

UGT2B7 [2] = target: T3, UGT2B7 (Homo sapiens, UniProt P16662); assay: probe substrate turnover, UHPLC
T3 sequence (P16662 24-529): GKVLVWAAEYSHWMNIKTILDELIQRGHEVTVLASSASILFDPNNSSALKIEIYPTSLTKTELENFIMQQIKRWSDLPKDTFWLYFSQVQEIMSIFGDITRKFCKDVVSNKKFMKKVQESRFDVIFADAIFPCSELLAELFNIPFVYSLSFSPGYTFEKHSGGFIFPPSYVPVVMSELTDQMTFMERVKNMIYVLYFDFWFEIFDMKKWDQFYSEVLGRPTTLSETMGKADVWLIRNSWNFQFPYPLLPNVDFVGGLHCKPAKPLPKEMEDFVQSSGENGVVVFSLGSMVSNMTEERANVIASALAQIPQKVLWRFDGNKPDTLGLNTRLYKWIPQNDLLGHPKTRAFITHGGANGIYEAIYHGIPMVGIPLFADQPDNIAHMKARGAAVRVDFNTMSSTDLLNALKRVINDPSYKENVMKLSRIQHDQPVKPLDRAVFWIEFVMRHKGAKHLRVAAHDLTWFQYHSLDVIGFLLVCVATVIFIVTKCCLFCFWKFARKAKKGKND

CYP2C8 = target: T4, CYP2C8 (Homo sapiens, UniProt P10632); assay: probe substrate turnover, UHPLC
T4 sequence (P10632 1-490): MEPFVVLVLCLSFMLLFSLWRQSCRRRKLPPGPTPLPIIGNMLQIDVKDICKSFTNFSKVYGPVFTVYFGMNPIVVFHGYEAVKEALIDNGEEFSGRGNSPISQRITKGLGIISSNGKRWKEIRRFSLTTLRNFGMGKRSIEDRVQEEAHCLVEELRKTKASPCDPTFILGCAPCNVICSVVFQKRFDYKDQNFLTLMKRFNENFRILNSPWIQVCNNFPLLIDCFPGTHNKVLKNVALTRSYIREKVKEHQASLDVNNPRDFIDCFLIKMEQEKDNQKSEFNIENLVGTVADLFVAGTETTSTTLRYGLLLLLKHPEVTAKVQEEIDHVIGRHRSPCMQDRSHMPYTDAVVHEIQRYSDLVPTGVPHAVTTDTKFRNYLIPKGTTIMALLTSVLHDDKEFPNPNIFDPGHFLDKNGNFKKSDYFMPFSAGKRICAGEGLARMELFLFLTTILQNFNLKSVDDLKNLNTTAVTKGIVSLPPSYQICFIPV

CYP2B6 [3] = target: T5, CYP2B6 (Homo sapiens, UniProt P20813); assay: probe substrate turnover, UHPLC
T5 sequence (P20813 1-491): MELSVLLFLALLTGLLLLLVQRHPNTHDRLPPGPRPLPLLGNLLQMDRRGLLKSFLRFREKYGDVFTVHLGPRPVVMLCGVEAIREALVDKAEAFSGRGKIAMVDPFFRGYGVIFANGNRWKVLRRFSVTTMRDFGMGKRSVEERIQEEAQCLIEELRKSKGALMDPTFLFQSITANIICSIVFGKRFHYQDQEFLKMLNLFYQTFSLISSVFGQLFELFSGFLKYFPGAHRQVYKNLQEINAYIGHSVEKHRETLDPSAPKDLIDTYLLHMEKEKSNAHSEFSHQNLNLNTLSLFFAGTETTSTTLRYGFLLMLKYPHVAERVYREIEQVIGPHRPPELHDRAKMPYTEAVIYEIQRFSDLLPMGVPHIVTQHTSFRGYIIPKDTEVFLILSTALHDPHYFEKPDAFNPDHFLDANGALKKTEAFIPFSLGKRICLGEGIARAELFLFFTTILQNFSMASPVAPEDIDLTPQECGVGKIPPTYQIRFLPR

CYP2C19 [4] = target: T6, CYP2C19 (Homo sapiens, UniProt P33261); assay: inhibition kinetics, nonlinear fit, Dixon plot, UHPLC
T6 sequence (P33261 whole entry): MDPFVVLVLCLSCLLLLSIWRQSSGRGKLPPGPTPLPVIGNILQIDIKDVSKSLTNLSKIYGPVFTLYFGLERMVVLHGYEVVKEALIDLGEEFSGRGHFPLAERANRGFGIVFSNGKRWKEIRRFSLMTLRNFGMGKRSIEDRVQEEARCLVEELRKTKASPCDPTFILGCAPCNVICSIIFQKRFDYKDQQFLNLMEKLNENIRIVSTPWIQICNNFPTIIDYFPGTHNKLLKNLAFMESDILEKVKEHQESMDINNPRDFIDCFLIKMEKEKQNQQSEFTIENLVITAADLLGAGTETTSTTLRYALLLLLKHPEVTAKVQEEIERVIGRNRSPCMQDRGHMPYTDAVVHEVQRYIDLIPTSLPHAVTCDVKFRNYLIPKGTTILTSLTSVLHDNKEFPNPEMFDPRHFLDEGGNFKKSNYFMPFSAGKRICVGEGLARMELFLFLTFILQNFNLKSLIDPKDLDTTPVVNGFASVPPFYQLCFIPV

UGT2B7 [5] = target: T3, UGT2B7; assay: as above
CYP2C9 [6] = target: T7, CYP2C9 (Homo sapiens, UniProt P11712); assay: as above
T7 sequence (P11712 whole entry): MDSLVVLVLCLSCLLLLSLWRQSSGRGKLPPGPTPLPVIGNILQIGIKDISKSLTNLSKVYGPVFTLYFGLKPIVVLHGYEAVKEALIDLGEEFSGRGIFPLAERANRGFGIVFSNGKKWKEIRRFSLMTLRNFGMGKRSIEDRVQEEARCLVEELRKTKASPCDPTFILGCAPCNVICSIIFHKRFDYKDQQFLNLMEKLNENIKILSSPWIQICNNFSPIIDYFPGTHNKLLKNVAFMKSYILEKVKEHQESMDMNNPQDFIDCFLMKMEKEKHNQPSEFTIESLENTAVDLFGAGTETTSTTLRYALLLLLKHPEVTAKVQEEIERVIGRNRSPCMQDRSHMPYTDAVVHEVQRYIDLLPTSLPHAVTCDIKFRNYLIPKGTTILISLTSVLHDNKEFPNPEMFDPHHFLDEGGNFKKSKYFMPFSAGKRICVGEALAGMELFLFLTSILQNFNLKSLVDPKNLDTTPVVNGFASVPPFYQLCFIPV

CYP2C19 [7] = target: T6, CYP2C19; assay: probe substrate turnover, UHPLC
CYP2B6 [8] = target: T5, CYP2B6; assay: inhibition kinetics, nonlinear fit, Dixon plot, UHPLC
CYP3A4 = CYP3A4 (Homo sapiens, UniProt P08684); assay: probe substrate turnover, UHPLC
Sequence of CYP3A4 (P08684 2-503): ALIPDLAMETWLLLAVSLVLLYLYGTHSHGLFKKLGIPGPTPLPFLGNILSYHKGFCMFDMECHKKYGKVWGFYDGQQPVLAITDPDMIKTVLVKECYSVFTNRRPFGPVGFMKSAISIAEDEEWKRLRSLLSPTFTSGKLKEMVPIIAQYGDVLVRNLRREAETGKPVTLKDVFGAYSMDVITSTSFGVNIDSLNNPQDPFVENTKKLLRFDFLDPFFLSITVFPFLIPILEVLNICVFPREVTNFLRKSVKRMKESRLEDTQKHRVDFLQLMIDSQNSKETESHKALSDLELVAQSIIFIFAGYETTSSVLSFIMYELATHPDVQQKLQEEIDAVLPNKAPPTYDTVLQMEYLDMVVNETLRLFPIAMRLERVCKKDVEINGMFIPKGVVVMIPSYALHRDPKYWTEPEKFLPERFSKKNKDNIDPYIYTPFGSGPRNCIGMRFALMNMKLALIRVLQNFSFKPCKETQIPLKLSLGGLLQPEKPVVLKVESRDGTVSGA

UGT1A9 [9] = target: T1, UGT1A9; assay: inhibition kinetics, nonlinear fit, Dixon plot, UHPLC
UGT1A1 = target: T8, UGT1A1 (Homo sapiens, UniProt P22309); assay: probe substrate turnover, UHPLC
T8 sequence (P22309 26-533): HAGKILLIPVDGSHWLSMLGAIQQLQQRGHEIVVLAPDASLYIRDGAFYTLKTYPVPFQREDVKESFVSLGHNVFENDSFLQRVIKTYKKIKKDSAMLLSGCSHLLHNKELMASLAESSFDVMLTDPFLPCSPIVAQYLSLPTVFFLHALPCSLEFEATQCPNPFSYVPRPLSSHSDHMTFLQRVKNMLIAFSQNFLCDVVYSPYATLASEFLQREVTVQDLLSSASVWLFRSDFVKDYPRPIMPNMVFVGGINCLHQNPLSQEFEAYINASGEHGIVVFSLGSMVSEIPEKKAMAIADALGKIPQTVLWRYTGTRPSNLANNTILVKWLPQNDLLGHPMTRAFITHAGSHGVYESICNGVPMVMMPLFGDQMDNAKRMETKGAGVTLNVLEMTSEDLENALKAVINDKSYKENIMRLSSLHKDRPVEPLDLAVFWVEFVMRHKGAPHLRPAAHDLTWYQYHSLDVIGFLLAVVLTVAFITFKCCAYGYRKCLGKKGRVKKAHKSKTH

CYP2C9 [10] = target: T7, CYP2C9; assay: probe substrate turnover, UHPLC

IC50 (UGT1A9 [1]): 2.34 ± 0.61 µM
% residual activity at 100 μM (CYP1A2): 91.5%
% residual activity at 100 μM (CYP2E1): 51.5%
IC50 (UGT2B7 [2]): 2.53 ± 0.62 µM
% residual activity at 100 μM (CYP2C8): 21.5%
IC50 (CYP2B6 [3]): 1.68 ± 0.63 µM
Ki (CYP2C19 [4]): 1.86 ± 0.16 µM
Ki (UGT2B7 [5]): 1.13 ± 0.12 µM
Ki (CYP2C9 [6]): 0.19 ± 0.03 µM
IC50 (CYP2C19 [7]): 1.38 ± 0.53 µM
Ki (CYP2B6 [8]): 1.51 ± 0.12 µM
% residual activity at 100 μM (CYP3A4): 24.7%
Ki (UGT1A9 [9]): 0.37 ± 0.04 µM
IC50 (UGT1A1): 20.7 ± 10.6 µM
IC50 (CYP2C9 [10]): 0.28 ± 0.07 µM
Compound: COc1cc2c(cc1CC=C(C)C)C(=O)C[C@@H](c1ccc(O)cc1)O2 [bavachinin]
